Some results are limits rather than exact numbers.

For the assay, the target named is T1, human MC2R (Homo sapiens, UniProt Q01718).
T1 construct: host or cells: CellSensor CRE-bla CHO-K1 cells
T1 sequence (Q01718 whole entry): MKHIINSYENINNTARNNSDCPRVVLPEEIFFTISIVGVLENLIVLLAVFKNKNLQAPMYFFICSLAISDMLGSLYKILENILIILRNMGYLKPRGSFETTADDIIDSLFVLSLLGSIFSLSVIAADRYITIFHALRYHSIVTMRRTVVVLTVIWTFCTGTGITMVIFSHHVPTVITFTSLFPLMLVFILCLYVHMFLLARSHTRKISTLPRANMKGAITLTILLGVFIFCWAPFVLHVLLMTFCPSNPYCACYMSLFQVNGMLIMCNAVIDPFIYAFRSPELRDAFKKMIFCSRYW
T1 sequence (Q8TCY5 whole entry partner): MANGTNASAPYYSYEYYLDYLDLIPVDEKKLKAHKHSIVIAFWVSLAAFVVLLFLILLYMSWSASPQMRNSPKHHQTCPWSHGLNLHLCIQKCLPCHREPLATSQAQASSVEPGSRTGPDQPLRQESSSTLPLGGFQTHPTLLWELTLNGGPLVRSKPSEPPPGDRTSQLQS
Description: Inhibition of binding of ACTH in human MC2R-containing membranes (SPA radioligand competition). To be noted: competition with 0.2 nM [125I]-TYR23]-ACTH (1-39), membranes of CHO-K1 cells expressing hMC2 receptor; read-out: hMC2 membrane binding. The protocol: Crude membrane fractions are prepared from CellSensor CRE-blaCHO-K1 cells stably expressing functional hMC2 receptor (ThermoFisher #K1483). […] Cells were collected and washed in Dulbecco's phosphate buffered saline (Corning #21-031-CV). […] The membrane fraction is separated from cell debris and collected in membrane preparation buffer, flash frozen in liquid nitrogen and stored at −80° C. […] Briefly, membranes from cells expressing the human MC2R were incubated with SPA beads (PerkinElmer #RPNQ0001) in binding assay buffer [50 mM HEPES (Biopioneer #C0113), 5 mM MgCl2 (Sigma #M8266), 1 mM CaCl2) (Fisher Scientific #BP510), 0.2% BSA (Fisher Scientific #BP1600), and protease inhibitors (Pierce #A32963); pH 7.4]. […] All data manipulations to determine the Kivalues were performed using GraphPad v8 (GraphPad, San Diego CA)
For the compound `CCOc1ccc(C(=O)N2CCN(c3ccc(-c4cccnc4OCC)nc3CNCCCNC(=O)C[C@H](O)C[C@H](O)CCNC(=O)CN3CCN(CC(=O)O)CCN(CC(=O)O)CCN(CC(=O)O)CC3)[C@H](CC)C2)c(C(F)(F)F)n1` [Compound 6, 2,2′,2″-(10-(2-(((3R,5R)-7-((3-(((2′-ethoxy-5-((R)-4-(6-ethoxy-2-(trifluoromethyl)-nicotinoyl)-2-ethylpiperazin-1-yl)-[2,3′-bipyridin]-6-yl)methyl)amino)propyl)-amino)-3,5-dihydroxy-7-oxoheptyl)amino)-2-oxoethyl)-1,4,7,10-tetraazacyclododecane-1,4,7-triyl)triacetic acid], the Ki was less than 10 nM.
To `CCOc1ccc(C(=O)N2CCN(c3ccc(-c4cccnc4OCC)nc3CNCCCNC(=O)[C@@H](N)CC(=O)NCCOCCNC(=O)CN3CCN(CC(=O)O)CCN(CC(=O)O)CCN(CC(=O)O)CC3)[C@H](CC)C2)c(C(F)(F)F)n1` [^115In complex of Compound 5] belongs less than 10 nM; to `CCOc1ccc(C(=O)N2CCN(c3ccc(-c4cccnc4OCC)nc3CNCCCCCCCCCCCCCCCNC(=O)CN3CCN(CC(=O)O)CCN(CC(=O)O)CCN(CC(=O)O)CC3)[C@H](CC)C2)c(C(F)(F)F)n1` [Compound 14, (R)-2,2′,2″-(10-(2-((15-(((2′-ethoxy-5-(4-(6-ethoxy-2-(trifluoromethyl)nicotinoyl)-2-ethylpiperazin-1-yl)-[2,3′-bipyridin]-6-yl)methyl)amino)pentadecyl)amino)-2-oxoethyl)-1,4,7,10-tetraazacyclododecane-1,4,7-triyl)triacetic acid], less than 10 nM.
The value for `CCOc1ccc(C(=O)N2CCN(c3ccc(-c4cccnc4OCC)nc3CNCCCOCCOCCOCCOCCNC(=O)CCC(C(=O)O)N3CCN(CC(=O)O)CCN(CC(=O)O)CCN(CC(=O)O)CC3)[C@H](CC)C2)c(C(F)(F)F)n1` (stereo partly drawn) [Compound 18, 2,2′,2″-(10-(22-carboxy-1-(2′-ethoxy-5-((R)-4-(6-ethoxy-2-(trifluoromethyl)-nicotinoyl)-2-ethylpiperazin-1-yl)-(2,3′-bipyridin]-6-yl)-19-oxo-6,9,12,15-tetraoxa-2,18-diazadocosan-22-yl)-1,4,7,10-tetraazacyclododecane-1,4,7-triyl)triacetic acid] was less than 10 nM.
With `CCOc1ccc(C(=O)N2CCN(c3ccc(-c4cccnc4OCC)nc3CNCCCN(CCOCCOCCOCCNC(=O)CN3CCN(CC(=O)O)CCN(CC(=O)O)CCN(CC(=O)O)CC3)CCOCCOCCOCCNC(=O)CN3CCN(CC(=O)O)CCN(CC(=O)O)CCN(CC(=O)O)CC3)[C@H](CC)C2)c(C(F)(F)F)n1` [^115In complex of Compound 4], the Ki was less than 10 nM.
In the case of `CCOc1ccccc1-c1ccc(N2CCN(C(=O)c3ccc(Cl)cc3C(F)F)C[C@H]2CC)c(C(=O)NC2CCN(CCCOc3cc(NCCOCCNC(=O)CN4CCN(CC(=O)O)CCN(CC(=O)O)CCN(CC(=O)O)CC4)cc(C(=O)O)c3)C2)n1` (stereo in doubt) [Compound 13, 2,2′,2″-(10-(2-((2-(2-((3-carboxy-5-(3-((R)-3-(3-((R)-4-(4-chloro-2-(difluoromethyl)benzoyl)-2-ethylpiperazin-1-yl)-6-(2-ethoxyphenyl)picolinamido)pyrrolidin-1-yl)propoxy)phenyl)amino)ethoxy)ethyl)amino)-2-oxoethyl)-1,4,7,10-tetraazacyclododecane-1,4,7-triyl)triacetic acid], the Ki is less than 10 nM.
To `CCOc1ccc(C(=O)N2CCN(c3ccc(-c4cccnc4OCC)cc3CNCCNCCCOCCOCCOCCOCCNC(=O)CN3CCN(CC(=O)O)CCN(CC(=O)O)CCN(CC(=O)O)CC3)[C@H](CC)C2)c(C(F)(F)F)n1` [Compound 15, (R)-2,2′,2″-(10-(1-(2-(4-(6-ethoxy-2-(trifluoromethyl)nicotinoyl)-2-ethylpiperazin-1-yl)-5-(2-ethoxypyridin-3-yl)phenyl)-22-oxo-9,12,15,18-tetraoxa-2,5,21-triazatricosan-23-yl)-1,4,7,10-tetraazacyclododecane-1,4,7-triyl)triacetic acid] belongs less than 10 nM.
The value for “2,2′,2″-(10-((R)-8-amino-1-(2′-ethoxy-5-((R)-4-(6-ethoxy-2-(trifluoromethyl)-nicotinoyl)-2-ethylpiperazin-1-yl)-[2,3′-bipyridin]-6-yl)-7,10,18-trioxo-14-oxa-2,6,11,17-tetra-azanonadecan-19-yl)-1,4,7,10-tetraazacyclododecane-1,4,7-triyl)triacetic acid [Compound 10]” was less than 10 nM; that for `CCOc1ccc(C(=O)N2CCN(c3ccc(-c4ccccc4OCC)nc3CNCCCOc3cc(NCCOCCNC(=O)CN4CCN(CC(=O)O)CCN(CC(=O)O)CCN(CC(=O)O)CC4)cc(C(=O)O)c3)[C@H](CC)C2)c(C(F)(F)F)c1` [^115In complex of Compound 3] was less than 10 nM.
The value for `CCOc1ccc(C(=O)N2CCN(c3ccc(-c4cccnc4OCC)nc3CNCCCC[C@@H](NC(=O)CN3CCN(CC(=O)O)CCN(CC(=O)O)CCN(CC(=O)O)CC3)C(=O)O)[C@H](CC)C2)c(C(F)(F)F)n1` [^115In complex of Compound 2] was less than 10 nM.
`CCOc1ccc(C(=O)N2CCN(c3ccc(-c4ccccc4OCC)nc3CNCCNCCCOCCOCCOCCOCCNC(=O)CN3CCN(CC(=O)O)CCN(CC(=O)O)CCN(CC(=O)O)CC3)[C@H](CC)C2)c(C(F)(F)F)c1` [Compound 17, (R)-2,2′,2″-(10-(1-(3-(4-(4-ethoxy-2-(trifluoromethyl)benzoyl)-2-ethylpiperazin-1-yl)-6-(2-ethoxyphenyl)pyridin-2-yl)-22-oxo-9,12,15,18-tetraoxa-2,5,21-triazatricosan-23-yl)-1,4,7,10-tetraazacyclododecane-1,4,7-triyl)triacetic acid]: the Ki is less than 10 nM.
For the compound `CCOc1ccccc1-c1ncc(C2(C(=O)N[C@@H]3CCN(CCOCCOCCOCCOCCNC(=O)CN4CCN(CC(=O)O)CCN(CC(=O)O)CCN(CC(=O)O)CC4)C3)CCN(c3ccc(C(F)(F)F)cc3C#N)CC2)cc1F` [Compound 9, (R)-2,2′,2″-(10-(17-(3-(1-(2-cyano-4-(trifluoromethyl)phenyl)-4-(6-(2-ethoxy-phenyl)-5-fluoropyridin-3-yl)piperidine-4-carboxamido)pyrrolidin-1-yl)-2-oxo-6,9,12,15-tetra-oxa-3-azaheptadecyl)-1,4,7,10-tetraazacyclododecane-1,4,7-triyl)triacetic acid], the Ki was less than 10 nM.
The value for `CCOc1ccc(C(=O)N2CCN(c3ccc(-c4cccnc4OCC)cc3CNCCNCCCOCCOCCOCCOCCNC(=O)CN3CCN(CC(=O)[O-])CCN(CC(=O)[O-])CCN(CC(=O)[O-])CC3)[C@H](CC)C2)c(C(F)(F)F)n1.[Ga+3]` [^69/71Ga complex of Compoud 15, gallium (R)-2,2′,2″-(10-(1-(2-(4-(6-ethoxy-2-(trifluoromethyl)nicotinoyl)-2-ethylpiperazin-1-yl)-5-(2-ethoxypyridin-3-yl)phenyl)-22-oxo-9,12,15,18-tetraoxa-2,5,21-triazatricosan-23-yl)-1,4,7,10-tetraazacyclododecane-1,4,7-triyl)triacetate] was less than 10 nM; that for “(R)-2,2′,2″-(10-(1-(3-(4-(4-ethoxy-2-(trifluoromethyl)benzoyl)-2-ethylpiperazin-1-yl)-6-(2-ethoxyphenyl)pyridin-2-yl)-19-oxo-6,9,12,15-tetraoxa-2,18-diazaicosan-20-yl)-1,4,7,10-tetraazacyclododecane-1,4,7-triyl)triacetic acid [Compound 11]” was less than 10 nM.

These data come from patent US20230405157A1, “MELANOCORTIN TYPE 2 RECEPTOR (MC2R) TARGETED THERAPEUTICS AND USES THEREOF” (Radionetics Oncology, Inc., priority 2022, published 2023).
